This passage reports T/C results from PubChem BioAssay AID200 (DTP/NCI, 2004).

Several values for one entry are separate records, joined by “and”; a condition that tells them apart may be missing. Equal values may be shown once. Inconclusive results and toxic doses are left out.

The test deals with B6C3F1 mice, B16 melanoma ip, median survival T/C. The test is described as follows: NCI In Vivo Anticancer Drug Screen. Data for tumor model B16 Melanoma (intraperitoneal) in B6C3F1 mice. To be noted: endpoint: median survival time, higher = longer survival. The procedure:
The antitumor activity of compounds was measured in mice bearing transplantable tumors. Survival or tumor size were measured and the results are expressed as the measurement made in the treated group (T) divided by the measurement made in the vehicle treated control group (C). The tumor model used in this assay is B16 Melanoma (intraperitoneal) in B6C3F1 mice

The mark [1] stands for this setting: dose: 6.25 mg/kg/injection, schedule: Q01DX009 (ip), vehicle: saline with Tween-80.
[2] abbreviates: dose: 12.5 mg/kg/injection, schedule: Q01DX009 (ip), vehicle: saline with Tween-80.
Where [3] appears, read: dose: 25.0 mg/kg/injection, schedule: Q01DX009 (ip), vehicle: saline with Tween-80.
[4] abbreviates: dose: 25.0 mg/kg/injection, schedule: Q01DX009 (ip), vehicle: saline.
Setting [5] is: dose: 50.0 mg/kg/injection, schedule: Q01DX009 (ip), vehicle: saline.
Where [6] appears, read: dose: 50.0 mg/kg/injection, schedule: Q01DX009 (ip), vehicle: saline with Tween-80.
The mark [7] stands for this setting: dose: 100.0 mg/kg/injection, schedule: Q01DX009 (ip), vehicle: saline with Tween-80.
Setting [8] is: dose: 200.0 mg/kg/injection, schedule: Q01DX009 (ip), vehicle: saline with Tween-80.
Where [9] appears, read: dose: 3.12 mg/kg/injection, schedule: Q01DX009 (ip), vehicle: saline with Tween-80.
The mark [10] stands for this setting: dose: 100.0 mg/kg/injection, schedule: Q01DX009 (ip), vehicle: saline.
The mark [11] stands for this setting: dose: 200.0 mg/kg/injection, schedule: Q01DX009 (ip), vehicle: saline.

Turning to `O=C1CC(c2ccc(Cl)cc2Cl)Oc2ccc(Cl)cc21` (stereo not drawn), the T/C by setting is: (dose: 3.13 mg/kg/injection, schedule: Q01DX009 (ip), vehicle: saline with Tween-80) 100 % of control; under setting [1], 93 % of control; under setting [2], 88 % of control; under setting [3], 100 % of control.
In the case of `CC(=O)/C(=C\c1ccc(Cl)c(Cl)c1)C(=O)CCN(C)C`, the T/C (dose: 12.5 mg/kg/injection, schedule: Q01DX009 (ip), vehicle: saline) was 94 % of control; the T/C under setting [4] is 93 % of control; the T/C under setting [5] was 89 % of control.
On to `CCSC(=O)N1c2ccc(OC)cc2C=CC1C#N` (stereo not drawn), for which the T/C runs as follows: under setting [6], 121 % of control and 95 % of control; under setting [7], 124 % of control and 107 % of control; under setting [8], 110 % of control.
As to `O=C1NC(=O)C2C3C=CC(C12)C1C2C(=O)NC(=O)C2C31` (stereo not drawn), the T/C is 108 % of control and 100 % of control under setting [2]; 107 % of control (dose: 19.7 mg/kg/injection, schedule: Q01DX009 (ip), vehicle: water); 114 % of control and 104 % of control under setting [3]; 98 % of control (dose: 32.9 mg/kg/injection, schedule: Q01DX009 (ip), vehicle: water); 117 % of control under setting [6]; 117 % of control (dose: 54.8 mg/kg/injection, schedule: Q01DX009 (ip), vehicle: water). For the same compound, under setting [7], the T/C is 120 % of control and 124 % of control.
For the compound `COc1ccc(C[C@@H]2NC[C@@H](O)[C@@H]2OC(C)=O)cc1`, the T/C under setting [3] was 124 % of control; the T/C (dose: 25.0 mg/kg/injection, schedule: Q04DX003 (ip), vehicle: saline with Tween-80) is 112 % of control; the T/C under setting [6] was 120 % of control; the T/C (dose: 50.0 mg/kg/injection, schedule: Q04DX003 (ip), vehicle: saline with Tween-80) is 110 % of control; the T/C (dose: 100.0 mg/kg/injection, schedule: Q04DX003 (ip), vehicle: saline with Tween-80) was 114 % of control; the T/C under setting [8] is 120 % of control and 121 % of control. The T/C (dose: 200.0 mg/kg/injection, schedule: Q04DX003 (ip), vehicle: saline with Tween-80) is 112 % of control.
`COC(=O)[C@@]12OC[C@]34[C@H]([C@@H](O)[C@@H]1O)[C@@]1(C)CC(=O)C(O)=C(C)[C@@H]1C[C@H]3OC(=O)[C@H](OC(=O)/C=C(\C)C(C)CO)[C@@H]24` (stereo partly drawn): the T/C runs as follows: (dose: 6.0 mg/kg/injection, schedule: Q01DX009 (ip), vehicle: saline + alcohol) 174 % of control; (dose: 8.0 mg/kg/injection, schedule: Q01DX009 (ip), vehicle: saline + alcohol) 161 % of control and 173 % of control.
As to `CCC1=C2C(=O)c3ccccc3C2=C(C)S(=O)(=O)O1`, the T/C (dose: 1.56 mg/kg/injection, schedule: Q01DX009 (ip), vehicle: saline with Tween-80) was 98 % of control; the T/C under setting [9] was 98 % of control; the T/C under setting [1] is 91 % of control and 93 % of control.
For the compound `CS(=O)(=O)CS(=O)(=O)OCCCl`, the T/C under setting [1] is 114 % of control; the T/C under setting [2] is 116 % of control; the T/C under setting [3] is 169 % of control and 178 % of control; the T/C under setting [6] is 228 % of control and 270 % of control; the T/C under setting [7] was 331 % of control.
Consider `CCCN(CCC)C(C)C(O)c1cc2c(c3ccccc13)CCCC2` (stereo not drawn), for which the T/C was 99 % of control (dose: 0.05 mg/kg/injection, schedule: Q01DX009 (ip), vehicle: Klucel (hydroxypropylcellulose) (HPC)); 91 % of control and 103 % of control (dose: 0.1 mg/kg/injection, schedule: Q01DX009 (ip), vehicle: Klucel (hydroxypropylcellulose) (HPC)); 97 % of control and 107 % of control (dose: 0.2 mg/kg/injection, schedule: Q01DX009 (ip), vehicle: Klucel (hydroxypropylcellulose) (HPC)); 109 % of control (dose: 0.39 mg/kg/injection, schedule: Q01DX009 (ip), vehicle: Klucel (hydroxypropylcellulose) (HPC)); 96 % of control and 101 % of control (dose: 0.4 mg/kg/injection, schedule: Q01DX009 (ip), vehicle: Klucel (hydroxypropylcellulose) (HPC)); 108 % of control (dose: 0.78 mg/kg/injection, schedule: Q01DX009 (ip), vehicle: Klucel (hydroxypropylcellulose) (HPC)). The T/C was 114 % of control and 95 % of control and 96 % of control (dose: 1.56 mg/kg/injection, schedule: Q01DX009 (ip), vehicle: Klucel (hydroxypropylcellulose) (HPC)); 94 % of control (dose: 3.12 mg/kg/injection, schedule: Q01DX009 (ip), vehicle: Klucel (hydroxypropylcellulose) (HPC)); 96 % of control and 101 % of control (dose: 6.25 mg/kg/injection, schedule: Q01DX009 (ip), vehicle: Klucel (hydroxypropylcellulose) (HPC)); 86 % of control (dose: 50.0 mg/kg/injection, schedule: Q01DX009 (ip), vehicle: Klucel (hydroxypropylcellulose) (HPC)).
In the case of `c1csc(C[N+]23CN4CN(CN(C4)C2)C3)c1`, the T/C (dose: 12.0 mg/kg/injection, schedule: Q01DX009 (ip), vehicle: saline) was 100 % of control; the T/C under setting [4] is 98 % of control; the T/C under setting [5] was 98 % of control; the T/C under setting [10] is 104 % of control; the T/C under setting [11] was 106 % of control.
For the compound `O=C(O)C1CC(O)CN1` (stereo not drawn), the T/C is, setting by setting: under setting [5], 101 % of control; under setting [10], 101 % of control; under setting [11], 96 % of control; (dose: 400.0 mg/kg/injection, schedule: Q01DX009 (ip), vehicle: saline) 106 % of control; (dose: 800.0 mg/kg/injection, schedule: Q01DX009 (ip), vehicle: saline) 108 % of control.
As to `O=C(CO)c1ccc([N+](=O)[O-])cc1`, the T/C is 113 % of control under setting [9]; 94 % of control under setting [1]; 105 % of control under setting [3]; 100 % of control under setting [6]; 93 % of control under setting [7].
`Nc1n[n+](-c2ccccc2)no1`: the T/C was 98 % of control (dose: 3.12 mg/kg/injection, schedule: Q01DX009 (ip), vehicle: water); 107 % of control (dose: 6.25 mg/kg/injection, schedule: Q01DX009 (ip), vehicle: water); 118 % of control (dose: 12.5 mg/kg/injection, schedule: Q01DX009 (ip), vehicle: water).
As to `Cc1[nH]ccc2c(C)c3nc4ccccc4c3cc12`, the T/C (dose: 25.0 mg/kg/injection, schedule: Q01DX009 (ip), vehicle: Klucel (hydroxypropylcellulose) (HPC)) was 159 % of control.
Take `CCCC(NC(=O)OCc1ccccc1)C(=O)NC(Cc1c[nH]c2ccccc12)C(=O)O` (stereo not drawn): the T/C is 107 % of control (dose: 100.0 mg/kg/injection, schedule: Q01DX009 (ip), vehicle: Klucel (hydroxypropylcellulose) (HPC)); 99 % of control (dose: 200.0 mg/kg/injection, schedule: Q01DX009 (ip), vehicle: Klucel (hydroxypropylcellulose) (HPC)); 100 % of control (dose: 400.0 mg/kg/injection, schedule: Q01DX009 (ip), vehicle: Klucel (hydroxypropylcellulose) (HPC)).
Turning to `COC1=C(OC)C(=O)C(SC/C=C(\C)CCCC(C)CCCC(C)CCCC(C)C)=CC1=O` (stereo not drawn), the T/C runs as follows: under setting [1], 100 % of control; under setting [2], 109 % of control and 94 % of control; under setting [3], 101 % of control and 103 % of control; under setting [6], 121 % of control and 106 % of control; under setting [7], 117 % of control; under setting [8], 116 % of control.
With `CN(C)N=Nc1ccnc2ccc(I)cc12`, the T/C by setting is: (dose: 3.13 mg/kg/injection, schedule: Q01DX009 (ip), vehicle: other) 111 % of control; (dose: 6.25 mg/kg/injection, schedule: Q01DX009 (ip), vehicle: other) 115 % of control; (dose: 12.5 mg/kg/injection, schedule: Q01DX009 (ip), vehicle: other) 109 % of control; (dose: 25.0 mg/kg/injection, schedule: Q01DX009 (ip), vehicle: other) 110 % of control; (dose: 50.0 mg/kg/injection, schedule: Q01DX009 (ip), vehicle: other) 114 % of control.
With `COc1cccc2c1C(=O)c1c(O)c3c(c(O)c1C2=O)C[C@@](O)(C(C)=O)C[C@@H]3OC1CC(N(Cc2ccccc2)Cc2ccccc2)C(O)C(C)O1` (stereo partly drawn), the T/C by setting is: (dose: 1.5 mg/kg/injection, schedule: Q01DX009 (ip), vehicle: saline with Tween-80) 100 % of control; (dose: 1.5 mg/kg/injection, schedule: Q01DX009 (ip), vehicle: water) 112 % of control; (dose: 3.0 mg/kg/injection, schedule: Q01DX009 (ip), vehicle: saline with Tween-80) 111 % of control; (dose: 3.0 mg/kg/injection, schedule: Q01DX009 (ip), vehicle: water) 116 % of control; (dose: 12.0 mg/kg/injection, schedule: Q01DX009 (ip), vehicle: saline with Tween-80) 156 % of control; (dose: 12.0 mg/kg/injection, schedule: Q01DX009 (ip), vehicle: water) 151 % of control.
